Source: ChEMBL document CHEMBL1127277, “Synthesis and in vitro cytotoxicity of 1,3-dioxolane-2-(2-ethanamine)-2-methanamine platinum(II) complexes” (Bioorg Med Chem Lett, 1994)
pIC50: −log10 of the molar value.

What was measured:
[1] = tested on: L1210; test: In vitro cytotoxicity against cisplatin resistance L1210 murine leukemia cell line; assay type: functional, cell-based, Mus musculus
[2] = tested on: L1210; test: In vitro cytotoxicity against cisplatin sensitive L1210 murine leukemia cell line; assay type: functional, cell-based, Mus musculus
[3] = tested on: PC-9; test: Cytotoxicity against human non-small cell lung cancer cell line PC-9 in MTT assay; assay type: functional, cell-based
[4] = tested on: PC-14; test: Cytotoxicity against human non-small cell lung cancer cell line PC-14 in MTT assay; assay type: functional, cell-based
[5] = tested on: SNU1; test: Cytotoxicity against human stomach cancer cell line SNU-1 in MTT assay; assay type: functional, cell-based
[6] = tested on: SNU-16; test: Cytotoxicity against human stomach cancer cell line SNU-16 in MTT assay; assay type: functional, cell-based
[7] = tested on: SNU-5; test: Cytotoxicity against human stomach cancer cell line SNU-5 in MTT assay; assay type: functional, cell-based
[8] = tested on: L1210; test: Ratio of the cytotoxicity against cisplatin resistance L1210 to parent (sensitive) cell lines; assay type: functional, cell-based

Sequence: CARBOPLATIN [listing 1 of 2 here]
- pIC50 [1]: 4.35
- pIC50 [2]: 5.74
- pIC50 [3]: 4.66
- pIC50 [4]: 4.81
- pIC50 [5]: 4.70
- pIC50 [6]: 4.86
- pIC50 [7]: 5.04

Sequence: CARBOPLATIN [listing 2 of 2 here]
- Ratio [8]: 24.1

Sequence: CISPLATIN [listing 1 of 2 here]
- pIC50 [1]: 5.49
- pIC50 [2]: 7.00
- pIC50 [3]: 6.00
- pIC50 [4]: 5.88
- pIC50 [5]: 5.57
- pIC50 [6]: 5.30
- pIC50 [7]: 6.00

Sequence: CISPLATIN [listing 2 of 2 here]
- Ratio [8]: 3.24
